Measurements reported in PubChem BioAssay (NCI).
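A five-concentration, 48-hour dose response in 96-well plates underlies each endpoint, interpolated linearly between surrounding concentrations. GI50 is the concentration that inhibits growth by half. TGI: total growth inhibition.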

Tests used:
Assay in all cases: DTP human tumour cell line panel, 48 h
786-0 renal = test system: 786-0 renal
A498 renal = test system: A498 renal
A549 NSCLC = test system: A549 NSCLC
ACHN renal = test system: ACHN renal
BT-549 breast = test system: BT-549 breast
CAKI-1 renal = test system: CAKI-1 renal
CCRF-CEM leukemia = test system: CCRF-CEM leukemia
COLO 205 colon = test system: COLO 205 colon
DU-145 prostate = test system: DU-145 prostate
EKVX NSCLC = test system: EKVX NSCLC
HCC-2998 colon = test system: HCC-2998 colon
HCT-116 colon = test system: HCT-116 colon
HCT-15 colon = test system: HCT-15 colon
HL-60(TB) leukemia = test system: HL-60(TB) leukemia
HOP-62 NSCLC = test system: HOP-62 NSCLC
HOP-92 NSCLC = test system: HOP-92 NSCLC
HS 578T breast = test system: HS 578T breast
HT29 colon = test system: HT29 colon
IGROV1 ovarian = test system: IGROV1 ovarian
K-562 leukemia = test system: K-562 leukemia
KM12 colon = test system: KM12 colon
LOX IMVI melanoma = test system: LOX IMVI melanoma
M14 melanoma = test system: M14 melanoma
MALME-3M melanoma = test system: MALME-3M melanoma
MCF7 breast = test system: MCF7 breast
MDA-MB-231 breast = test system: MDA-MB-231 breast
MDA-MB-435 = test system: MDA-MB-435
MOLT-4 leukemia = test system: MOLT-4 leukemia
NCI-H226 lung = test system: NCI-H226 lung
NCI-H23 lung = test system: NCI-H23 lung
NCI-H460 lung = test system: NCI-H460 lung
NCI-H522 lung = test system: NCI-H522 lung
NCI/ADR-RES ovarian = test system: NCI/ADR-RES ovarian
OVCAR-3 ovarian = test system: OVCAR-3 ovarian
OVCAR-4 ovarian = test system: OVCAR-4 ovarian
OVCAR-5 ovarian = test system: OVCAR-5 ovarian
OVCAR-8 ovarian = test system: OVCAR-8 ovarian
PC-3 prostate = test system: PC-3 prostate
RPMI-8226 leukemia = test system: RPMI-8226 leukemia
RXF 393 renal = test system: RXF 393 renal
SF-268 CNS = test system: SF-268 CNS
SF-295 CNS = test system: SF-295 CNS
SF-539 CNS = test system: SF-539 CNS
SK-MEL-2 melanoma = test system: SK-MEL-2 melanoma
SK-MEL-28 melanoma = test system: SK-MEL-28 melanoma
SK-MEL-5 melanoma = test system: SK-MEL-5 melanoma
SK-OV-3 ovarian = test system: SK-OV-3 ovarian
SN12C renal = test system: SN12C renal
SNB-19 CNS = test system: SNB-19 CNS
SNB-75 CNS = test system: SNB-75 CNS
SR leukemia = test system: SR leukemia
SW-620 colon = test system: SW-620 colon
T-47D breast = test system: T-47D breast
TK-10 renal = test system: TK-10 renal
U251 CNS = test system: U251 CNS
UACC-257 melanoma = test system: UACC-257 melanoma
UACC-62 melanoma = test system: UACC-62 melanoma
UO-31 renal = test system: UO-31 renal

## CCCCCCCCCCCCNC(=O)N[C@H](C(=O)N[C@H]1/C=C/CCNC(=O)/C=C/[C@H](C)NC1=O)C(C)C
786-0 renal
  GI50: 0.276 µM
  TGI: 5.39 µM
A498 renal
  GI50: 0.0649 µM
  TGI: 0.362 µM
A549 NSCLC
  GI50: 0.262 µM
  TGI: 9.07 µM
ACHN renal
  GI50: 1.87 µM
  TGI: > 100 µM
BT-549 breast
  GI50: 0.0228 µM
  TGI: 0.0701 µM
CAKI-1 renal
  GI50: 4.95 µM
  TGI: > 100 µM
CCRF-CEM leukemia
  GI50: 0.0495 µM
  TGI: 5.13 µM
COLO 205 colon
  GI50: 0.0309 µM
  TGI: 0.109 µM
DU-145 prostate
  GI50: 0.108 µM
  TGI: 3.78 µM
EKVX NSCLC
  GI50: 0.477 µM
  TGI: 12.6 µM
HCC-2998 colon
  GI50: 0.0239 µM
  TGI: 0.0562 µM
HCT-116 colon
  GI50: 0.0365 µM
  TGI: 0.163 µM
HCT-15 colon
  GI50: 2.76 µM
  TGI: > 100 µM
HL-60(TB) leukemia
  GI50: 0.143 µM
  TGI: 13.3 µM
HOP-62 NSCLC
  GI50: 0.0538 µM
  TGI: 0.178 µM
HOP-92 NSCLC
  GI50: 0.123 µM
  TGI: 0.353 µM
HS 578T breast
  GI50: 0.333 µM
  TGI: 24 µM
HT29 colon
  GI50: 0.0216 µM
  TGI: 0.331 µM
IGROV1 ovarian
  GI50: 0.06 µM
  TGI: 2.24 µM
K-562 leukemia
  GI50: 0.456 µM
  TGI: 15.1 µM
KM12 colon
  GI50: 0.0222 µM
  TGI: 0.0519 µM
LOX IMVI melanoma
  GI50: 0.113 µM
  TGI: 0.355 µM
M14 melanoma
  GI50: 0.221 µM
  TGI: 4.6 µM
MALME-3M melanoma
  GI50: 0.422 µM
  TGI: 2.99 µM
MCF7 breast
  GI50: 0.0577 µM
  TGI: 15.6 µM
MDA-MB-231 breast
  GI50: 0.0709 µM
  TGI: 0.277 µM
MDA-MB-435
  GI50: 0.0316 µM
  TGI: 0.286 µM
MOLT-4 leukemia
  GI50: 0.0448 µM
  TGI: 1.13 µM
NCI-H226 lung
  GI50: 0.0582 µM
  TGI: 0.167 µM
NCI-H23 lung
  GI50: 0.0513 µM
  TGI: 0.612 µM
NCI-H460 lung
  GI50: 0.0416 µM
  TGI: 0.288 µM
NCI-H522 lung
  GI50: 0.0244 µM
  TGI: 0.0647 µM
NCI/ADR-RES ovarian
  GI50: > 100 µM
  TGI: > 100 µM
OVCAR-3 ovarian
  GI50: 0.0566 µM
  TGI: 0.935 µM
OVCAR-4 ovarian
  GI50: 0.104 µM
  TGI: 2.12 µM
OVCAR-5 ovarian
  GI50: 0.0271 µM
  TGI: 0.114 µM
OVCAR-8 ovarian
  GI50: 0.463 µM
  TGI: 4.19 µM
PC-3 prostate
  GI50: 0.0154 µM
  TGI: 0.0665 µM
RPMI-8226 leukemia
  GI50: 0.0309 µM
  TGI: 1 µM
RXF 393 renal
  GI50: 0.0166 µM
  TGI: 0.0405 µM
SF-268 CNS
  GI50: 0.0543 µM
  TGI: 1.04 µM
SF-295 CNS
  GI50: 0.239 µM
  TGI: 1.45 µM
SF-539 CNS
  GI50: 0.0805 µM
  TGI: 0.263 µM
SK-MEL-2 melanoma
  GI50: 0.207 µM
  TGI: 0.627 µM
SK-MEL-28 melanoma
  GI50: 0.208 µM
  TGI: 0.708 µM
SK-MEL-5 melanoma
  GI50: 0.163 µM
  TGI: 0.39 µM
SK-OV-3 ovarian
  GI50: 0.339 µM
  TGI: 1.99 µM
SN12C renal
  GI50: 0.184 µM
  TGI: 0.591 µM
SNB-19 CNS
  GI50: 0.0647 µM
  TGI: 15 µM
SNB-75 CNS
  GI50: 0.0345 µM
  TGI: 0.155 µM
SR leukemia
  GI50: 0.0294 µM
  TGI: 0.958 µM
SW-620 colon
  GI50: 0.0504 µM
  TGI: 1.34 µM
T-47D breast
  GI50: 0.144 µM
  TGI: 0.36 µM
TK-10 renal
  GI50: 0.0352 µM
  TGI: 0.191 µM
U251 CNS
  GI50: 0.0412 µM
  TGI: 0.209 µM
UACC-257 melanoma
  GI50: 0.269 µM
  TGI: 1.85 µM
UACC-62 melanoma
  GI50: 0.0447 µM
  TGI: 0.168 µM
UO-31 renal
  GI50: 32.2 µM
  TGI: > 100 µM

## Cc1ccc(S(=O)(=O)OCC(=O)Nc2ccc(C(=O)O)c(O)c2)cc1
786-0 renal
  GI50: 30.5 µM
  TGI: 96.7 µM
A498 renal
  GI50: 36.4 µM
  TGI: 105 µM
A549 NSCLC
  GI50: 199 µM
  TGI: 503 µM
ACHN renal
  GI50: 43.1 µM
  TGI: 159 µM
BT-549 breast
  GI50: 71.6 µM
  TGI: 206 µM
CAKI-1 renal
  GI50: 14.7 µM
  TGI: 91.1 µM
CCRF-CEM leukemia
  GI50: 13.7 µM
  TGI: 69 µM
COLO 205 colon
  GI50: 113 µM
  TGI: 259 µM
DU-145 prostate
  GI50: 26.8 µM
  TGI: 75.9 µM
EKVX NSCLC
  GI50: 165 µM
  TGI: 332 µM
HCC-2998 colon
  GI50: 41 µM
  TGI: 88.1 µM
HCT-116 colon
  GI50: 20.5 µM
  TGI: 69 µM
HCT-15 colon
  GI50: 38.8 µM
  TGI: 155 µM
HL-60(TB) leukemia
  GI50: 26.1 µM
  TGI: 193 µM
HOP-62 NSCLC
  GI50: 32.6 µM
  TGI: 86 µM
HOP-92 NSCLC
  GI50: 20 µM
  TGI: 56.7 µM
HS 578T breast
  GI50: 20.3 µM
  TGI: 61.8 µM
HT29 colon
  GI50: 38.6 µM
  TGI: 172 µM
IGROV1 ovarian
  GI50: 18 µM
  TGI: 92.3 µM
K-562 leukemia
  GI50: 28.9 µM
  TGI: 120 µM
KM12 colon
  GI50: 73.6 µM
  TGI: 199 µM
LOX IMVI melanoma
  GI50: 20.8 µM
  TGI: 61 µM
M14 melanoma
  GI50: 28.2 µM
  TGI: 85 µM
MALME-3M melanoma
  GI50: 32.3 µM
  TGI: 115 µM
MCF7 breast
  GI50: 23.9 µM
  TGI: 121 µM
MDA-MB-231 breast
  GI50: 25.9 µM
  TGI: 99.6 µM
MDA-MB-435
  GI50: 39.9 µM
  TGI: 169 µM
MOLT-4 leukemia
  GI50: 16.5 µM
  TGI: 87.9 µM
NCI-H226 lung
  GI50: 30.9 µM
  TGI: 139 µM
NCI-H23 lung
  GI50: 29.4 µM
  TGI: 105 µM
NCI-H460 lung
  GI50: 124 µM
  TGI: 292 µM
NCI-H522 lung
  GI50: 11.9 µM
  TGI: 34.6 µM
NCI/ADR-RES ovarian
  GI50: 32.2 µM
  TGI: 162 µM
OVCAR-3 ovarian
  GI50: 19.3 µM
  TGI: 44.5 µM
OVCAR-4 ovarian
  GI50: 26.8 µM
  TGI: 143 µM
OVCAR-5 ovarian
  GI50: 46.5 µM
  TGI: 105 µM
OVCAR-8 ovarian
  GI50: 30.3 µM
  TGI: 106 µM
PC-3 prostate
  GI50: 30.4 µM
  TGI: 131 µM
RPMI-8226 leukemia
  GI50: 138 µM
  TGI: 346 µM
RXF 393 renal
  GI50: 16.5 µM
  TGI: 85 µM
SF-268 CNS
  GI50: 19.5 µM
  TGI: 53.5 µM
SF-295 CNS
  GI50: 167 µM
  TGI: 322 µM
SF-539 CNS
  GI50: 24.7 µM
  TGI: 72.2 µM
SK-MEL-2 melanoma
  GI50: 50.2 µM
  TGI: 203 µM
SK-MEL-28 melanoma
  GI50: 31.8 µM
  TGI: 94.5 µM
SK-MEL-5 melanoma
  GI50: 27 µM
  TGI: 82.6 µM
SK-OV-3 ovarian
  GI50: 49.5 µM
  TGI: 188 µM
SN12C renal
  GI50: 27.9 µM
  TGI: 105 µM
SNB-19 CNS
  GI50: 66.5 µM
  TGI: 242 µM
SNB-75 CNS
  GI50: 47.3 µM
  TGI: 185 µM
SR leukemia
  GI50: 0.195 µM
  TGI: 7.08 µM
SW-620 colon
  GI50: 43.7 µM
  TGI: 145 µM
T-47D breast
  GI50: 43.2 µM
  TGI: 133 µM
TK-10 renal
  GI50: 207 µM
  TGI: 464 µM
U251 CNS
  GI50: 16.3 µM
  TGI: 34.5 µM
UACC-257 melanoma
  GI50: 36.7 µM
  TGI: 200 µM
UACC-62 melanoma
  GI50: 20.9 µM
  TGI: 61.4 µM
UO-31 renal
  GI50: 45.1 µM
  TGI: 173 µM
